Assays:
[1] = tested on: T-cell activation in rat whole blood; experiment: Example 4: IL-17A release in thapsigargin stimulated rat whole blood; type: cell-based, rat (Lewis or Sprague-Dawley); settings: 24 Hr, at least 2 replicates, unit inferred, read-out: IC50 (inhibition of IL-17A release)
Text: Rat whole blood was used to assess the potency of Kv1.3 inhibitor peptides on T-cell activation as determined by IL-17A release after stimulation with thapsigargin. Addition of thapsigargin results in activation of a signalling cascade ending up in activation of T cell proliferation and cytokine production where the Kv1.3 ion channel plays a key role, so activity of Kv1.3 inhibitors in primary cells can be measured in this experimental system.
Rat whole blood was obtained from healthy, naïve Lewis or Sprague-Dawley rats that were terminally bleed from the heart using Sodium Heparin blood sampling tubes for collection. Peptides were diluted to 4× final testing concentrations in assay buffer (DMEM+GlutaMAX), GlutaMAX is a medium comprising 3.97 mM L-alanine-L-glutamine (Gibco Cat #61965026) supplemented with 25 mM HEPES buffer, 1 mM Sodium Pyruvate, 100 units/ml Penicillin, 100 μg/ml Streptomycin and 0.05% Casein from bovine milk (Sigma-Aldrich)) and 25 μl was added to wells of a 96 well plate. Then 50 μl whole rat blood was added and incubated for minimum 5 minutes at room temperature to allow compound binding. Then 25 μl 40 μM thapsigargin diluted in assay buffer was added to all wells of the assay plates to activate the cells, followed by incubation for 24 Hr at 37° C./5% CO2 in a humidified box. The assay plates were centrifuged for 10 min at 300 g at 4° C. and the supernatants were transferred to new plates. The concentrations of IL-17A released to the supernatants were measured using a Rat IL-17A ELISA Kit (Abcam Cat #ab214028) as recommended by the manufacturer. Samples were diluted 2.5-fold by transferring 20 μl of the supernatants to wells on ELISA plates containing 30 μl buffer 75BS from the detection kit.
Data from peptides eliciting an inhibition of IL-17A were normalised relative to full thapsigargin activation (no inhibitor added) and no activation controls (addition of assay buffer instead of thapsigargin) to calculate the IC50 from the concentration response curve.
Results are shown in Table 5, expressed as IC50, with standard deviation (IC50_SD). All values are derived from at least 2 replicates. The biological effects ex vivo show a correlation with the potency of the peptides.

[2] = target: T1, Kv1.1 (Homo sapiens, UniProt Q09470); experiment: Patch clamp assay (QPatch), Kv1.1; type: cell-based; settings: for IC50: QPatch, CHO cells stably expressing human Kv1.1, read-out: Potency IC50, Kv1.1; for Selectivity Kv1.1/Kv1.3: ratio of IC50 Kv1.1/Kv1.3
T1 construct: expressed in transfected cells
T1 sequence (Q09470 whole entry): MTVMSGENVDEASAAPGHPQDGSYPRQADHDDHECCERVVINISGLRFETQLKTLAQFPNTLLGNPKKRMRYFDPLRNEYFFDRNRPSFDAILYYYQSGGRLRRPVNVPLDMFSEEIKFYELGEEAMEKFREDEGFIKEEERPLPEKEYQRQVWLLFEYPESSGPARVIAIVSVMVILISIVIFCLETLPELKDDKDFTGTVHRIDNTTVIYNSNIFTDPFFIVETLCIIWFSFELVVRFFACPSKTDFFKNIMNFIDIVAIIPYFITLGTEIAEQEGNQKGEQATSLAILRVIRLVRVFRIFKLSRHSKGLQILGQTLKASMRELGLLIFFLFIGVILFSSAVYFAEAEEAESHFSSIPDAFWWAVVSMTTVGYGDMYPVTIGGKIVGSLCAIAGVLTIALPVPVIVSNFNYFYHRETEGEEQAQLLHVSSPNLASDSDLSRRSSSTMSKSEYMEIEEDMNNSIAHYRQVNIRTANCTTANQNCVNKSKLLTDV

[3] = target: T2, Kv1.3 (Homo sapiens, UniProt P22001); experiment: Patch clamp assay (QPatch), Kv1.3; type: cell-based; settings: CHO cells stably expressing human Kv1.3, read-out: Potency IC50, Kv1.3
T2 construct: expressed in transfected cells
T2 sequence (P22001 whole entry): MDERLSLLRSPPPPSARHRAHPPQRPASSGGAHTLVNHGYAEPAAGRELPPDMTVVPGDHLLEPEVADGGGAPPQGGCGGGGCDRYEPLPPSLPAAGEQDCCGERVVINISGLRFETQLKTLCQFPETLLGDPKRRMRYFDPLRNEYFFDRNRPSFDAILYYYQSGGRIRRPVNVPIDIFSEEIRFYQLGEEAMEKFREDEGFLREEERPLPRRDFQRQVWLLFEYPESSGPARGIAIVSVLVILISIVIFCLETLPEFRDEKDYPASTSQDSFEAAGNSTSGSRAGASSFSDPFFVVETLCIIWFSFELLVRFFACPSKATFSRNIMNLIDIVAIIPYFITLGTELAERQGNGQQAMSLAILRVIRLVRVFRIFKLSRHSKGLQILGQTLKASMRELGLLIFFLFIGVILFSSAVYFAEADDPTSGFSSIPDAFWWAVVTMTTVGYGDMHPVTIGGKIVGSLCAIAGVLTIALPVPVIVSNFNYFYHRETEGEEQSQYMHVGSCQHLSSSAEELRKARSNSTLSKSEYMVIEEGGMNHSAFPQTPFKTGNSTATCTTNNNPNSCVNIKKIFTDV
Experimental: (§1) Selectivity of Kv1.3 inhibitor peptides for Kv1.3 over other potassium ion channels (Kv1.1, Kv1.2 and Kv1.6) was determined using patch clamp assay.
(§2) Chinese Hamster Ovary (CHO) cell lines stably expressing exogenous human α-subunits of each potassium ion channel were grown and passaged under standard culture conditions.
(§3) The automated, chip-based planar patch clamp device QPatch® was used to quantitate the ionic currents. All recordings were made in the conventional whole-cell configuration after establishment of gigaohm seals. […] During experiments 0.1% (v/v) BSA was included as a vehicle in all external recording solutions. Currents were elicited from a holding potential of −80 mV using a voltage protocol, which shifted the voltage to 30 mV for 500 ms every 15 s.
(§4) Concentration-response relationships were established by cumulatively applying seven escalating concentrations of test sample to an individual cell with a recording period of 2 min per compound application.
(§5) The efficacy was determined as the mean charge for the last three sweeps at the end of each concentration application period from the cursor positions. The percent inhibition for each test dose application period was calculated as the reduction in mean cursor value (charge) relative to the cursor value measured at the end of the vehicle period and used to calculate the IC50 from the concentration response curve.

[4] = target: T3, Kv1.2 (Homo sapiens, UniProt P16389); experiment: Patch clamp assay (QPatch), Kv1.2; type: cell-based; settings: for IC50: QPatch, CHO cells stably expressing human Kv1.2, read-out: Potency IC50, Kv1.2; for Selectivity Kv1.2/Kv1.3: ratio of IC50 Kv1.2/Kv1.3
T3 construct: expressed in transfected cells
T3 sequence (P16389 whole entry): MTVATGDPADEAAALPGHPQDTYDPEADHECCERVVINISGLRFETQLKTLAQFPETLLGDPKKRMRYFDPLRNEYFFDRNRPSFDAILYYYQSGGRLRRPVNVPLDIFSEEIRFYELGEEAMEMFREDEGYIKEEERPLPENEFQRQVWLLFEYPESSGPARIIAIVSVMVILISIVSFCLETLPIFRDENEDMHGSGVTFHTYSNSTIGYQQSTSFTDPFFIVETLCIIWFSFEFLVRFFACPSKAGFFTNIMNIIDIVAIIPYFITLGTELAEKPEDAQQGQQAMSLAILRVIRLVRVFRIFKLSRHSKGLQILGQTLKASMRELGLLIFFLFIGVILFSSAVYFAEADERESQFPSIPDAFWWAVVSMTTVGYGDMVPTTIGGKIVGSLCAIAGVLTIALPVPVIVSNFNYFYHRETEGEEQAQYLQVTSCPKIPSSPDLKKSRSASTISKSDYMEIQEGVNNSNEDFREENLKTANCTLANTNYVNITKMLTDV
Experimental: as §1, §2, §3, §4, §5

[5] = target: T4, Kv1.6 (Homo sapiens, UniProt P17658); experiment: Patch clamp assay (QPatch), Kv1.6; type: cell-based; settings: for IC50: QPatch, CHO cells stably expressing human Kv1.6, read-out: Potency IC50, Kv1.6; for Selectivity Kv1.6/Kv1.3: ratio of IC50 Kv1.6/Kv1.3
T4 construct: expressed in transfected cells
T4 sequence (P17658 whole entry): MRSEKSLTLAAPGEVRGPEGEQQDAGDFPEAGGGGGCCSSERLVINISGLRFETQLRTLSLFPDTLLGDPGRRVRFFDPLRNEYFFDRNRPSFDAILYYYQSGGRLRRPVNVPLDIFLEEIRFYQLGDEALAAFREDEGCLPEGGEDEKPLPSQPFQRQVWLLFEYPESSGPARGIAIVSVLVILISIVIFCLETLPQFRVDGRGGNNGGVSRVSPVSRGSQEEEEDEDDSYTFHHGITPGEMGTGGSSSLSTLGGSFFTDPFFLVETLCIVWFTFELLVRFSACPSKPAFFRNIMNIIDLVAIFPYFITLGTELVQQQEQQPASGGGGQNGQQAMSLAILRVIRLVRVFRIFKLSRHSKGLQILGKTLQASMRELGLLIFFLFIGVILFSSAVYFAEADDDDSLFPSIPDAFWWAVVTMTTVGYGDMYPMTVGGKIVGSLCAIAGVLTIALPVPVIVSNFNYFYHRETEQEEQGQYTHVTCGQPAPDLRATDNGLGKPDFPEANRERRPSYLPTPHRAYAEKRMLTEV
Experimental: as §1, §2, §3, §4, §5

Ac-LRC(1)SASVEC(2)KQKC(3)LAAIGSIFGKC(1)MNKKC(2)KC(3)YPR-OH [Peptide 123]
IC50 [1]: 0.36 nM

Ac-LRC(1)SASVEC(2)KQKC(3)LAAIGSIFGKC(1)[Nle]NKKC(2)KC(3)YPR-OH [Peptide 122]
IC50 [1]: 0.9 nM

H-AAAISCVGSPECPPKCRAQGCKNGKCMNRKCKCYYC-NH2 [Vm24, reference compound]
IC50 [2]: 0.097 nM
Selectivity Kv1.1/Kv1.3 [2]: 0.65
IC50 [3]: 0.15 nM
IC50 [4]: 4.7 nM
Selectivity Kv1.2/Kv1.3 [4]: 31
IC50 [5]: 21 nM
Selectivity Kv1.6/Kv1.3 [5]: 139

H-C(1)SASVEC(2)KQKC(3)LKAIGC(4)IFGKC(1)[Nle]NKKC(2)KC(3)YPC(4)-NH2 [Peptide 89]
IC50 [1]: 1.1 nM

H-LRC(1)SASVEC(2)KQKC(3)LKAIGSIFGKC(1)[Nle]NKKC(2)KC(3)YPR-OH [Peptide 115]
IC50 [1]: 2.1 nM

H-NMDMRC(1)KASVEC(2)KQKC(3)LKAIGSIFGKC(1)MNKKC(2)KC(3)YPR-NH2 [Peptide 26]
IC50 [2]: > 3000 nM
Selectivity Kv1.1/Kv1.3 [2]: >34200
IC50 [3]: 0.09 nM
IC50 [4]: 67 nM
Selectivity Kv1.2/Kv1.3 [4]: 761
IC50 [5]: 363 nM
Selectivity Kv1.6/Kv1.3 [5]: 4144

H-NMDMRC(1)SASVEC(2)KQKC(3)LAIGSIFGKC(1)MNKKC(2)KC(3)YPR-NH2 [Peptide 55]
IC50 [2]: > 3000 nM
Selectivity Kv1.1/Kv1.3 [2]: >1200
IC50 [3]: 2.41 nM
IC50 [4]: 291 nM
Selectivity Kv1.2/Kv1.3 [4]: 121
IC50 [5]: > 3000 nM
Selectivity Kv1.6/Kv1.3 [5]: >1200

H-NMDMRC(1)SASVEC(2)KQKC(3)LKAIGSIFGKC(1)MNKKC(2)VC(3)YPR-NH2 [Peptide 39]
IC50 [1]: 2.8 nM

H-NMDMRC(1)SASVEC(2)KQKC(3)LKAIHSIFGKC(1)MNKKC(2)KC(3)YPR-NH2 [Peptide 34]
IC50 [1]: 0.7 nM

H-NMDMRC(1)SASVEC(2)KQKC(3)LKAYGSIFGKC(1)MNKKC(2)KC(3)YPR-NH2 [Peptide 59]
IC50 [2]: > 3000 nM
Selectivity Kv1.1/Kv1.3 [2]: >8800
IC50 [3]: 0.34 nM
IC50 [4]: 145 nM
Selectivity Kv1.2/Kv1.3 [4]: 426
IC50 [5]: > 3000 nM
Selectivity Kv1.6/Kv1.3 [5]: >8800

H-NMDMRC(1)SASVEC(2)KQKC(3)LKRIGSIFGKC(1)MNKKC(2)KC(3)YPR-NH2 [Peptide 57]
IC50 [2]: > 3000 nM
Selectivity Kv1.1/Kv1.3 [2]: >9900
IC50 [3]: 0.3 nM
IC50 [4]: 57 nM
Selectivity Kv1.2/Kv1.3 [4]: 187
IC50 [5]: 932 nM
Selectivity Kv1.6/Kv1.3 [5]: 3062

H-NMDMRC(1)SASVEC(2)KQKC(3)LKYIGSIFGKC(1)MNKKC(2)KC(3)YPR-NH2 [Peptide 56]
IC50 [3]: 0.12 nM

H-NMDMRC(1)SASVEC(2)KQKC(3)RKAIGSIFGKC(1)MNKKC(2)KC(3)YPR-NH2 [Peptide 52]
IC50 [3]: 0.25 nM

H-NMDMRC(1)SASVEC(2)KQKC(3)YKAIGSIFGKC(1)MNKKC(2)KC(3)YPR-NH2 [Peptide 51]
IC50 [3]: 0.27 nM

H-NMEMRC(1)SASVEC(2)KQKC(3)LKAIGSIFGKC(1)MNKKC(2)KC(3)YPR-OH [Peptide 13]
IC50 [2]: > 3000 nM
Selectivity Kv1.1/Kv1.3 [2]: >27600
IC50 [3]: 0.11 nM
IC50 [4]: 228 nM
Selectivity Kv1.2/Kv1.3 [4]: 2093
IC50 [5]: > 3000 nM
Selectivity Kv1.6/Kv1.3 [5]: >27600

H-N[Nle]D[Nle]RC(1)SASVEC(2)EQKC(3)LKAIGSIFGKC(1)[Nle]NKKC(2)KC(3)YPR-NH2 [Peptide 44]
IC50 [1]: 0.99 nM

H-N[Nle]D[Nle]RC(1)SASVEC(2)KQKC(3)LKAIGSIFGKC(1)MNKKC(2)KC(3)YPR-NH2 [Peptide 40]
IC50 [3]: 0.15 nM

H-N[Nle]D[Nle]RC(1)SASVEC(2)KQKC(3)LKAIGSIFGKC(1)[Nle]NKKC(2)KC(3)YPR-NH2 [Peptide 41]
IC50 [2]: > 3000 nM
Selectivity Kv1.1/Kv1.3 [2]: >11600
IC50 [3]: 0.26 nM
IC50 [4]: 113 nM
Selectivity Kv1.2/Kv1.3 [4]: 436
IC50 [5]: 1830 nM
Selectivity Kv1.6/Kv1.3 [5]: 7073

H-N[Nle]D[Nle]RC(1)SASVEC(2)QQKC(3)LKAIGSIFGKC(1)[Nle]NKKC(2)KC(3)YPR-NH2 [Peptide 45]
IC50 [1]: 1.1 nM

H-PIDERC(1)SASVEC(2)KQKC(3)LAAIGSIFGKC(1)[Nle]NKKC(2)KC(3)YPR-OH [Peptide 104]
IC50 [1]: 0.87 nM

H-P[Nle]D[Nle]RC(1)SASVEC(2)AQKC(3)LAAIGSIFGKC(1)MNKKC(2)KC(3)YPR-OH [Peptide 106]
IC50 [1]: 0.32 nM

H-P[Nle]D[Nle]RC(1)SASVEC(2)KEKC(3)L[homo-Gln]AIGSIFGKC(1)[Nle]NKKC(2)KC(3)YPR-NH2 [Peptide 88]
IC50 [1]: 1.4 nM

H-P[Nle]D[Nle]RC(1)SASVEC(2)KQKC(3)LKAIGC(4)IFGKC(1)[Nle]NKKC(2)KC(3)YPC(4)-OH [Peptide 86]
IC50 [1]: 1.1 nM

H-P[Nle]E[Nle]RC(1)SASVEC(2)KQKC(3)LLAIGSIFGKC(1)[Nle]NKKC(2)KC(3)YPR-OH [Peptide 103]
IC50 [1]: 0.5 nM

H-P[Nle]E[Nle]RC(1)[2,4-Diaminobutanoyl]ASVEC(2)KQKC(3)LAAIGSIFGKC(1)[Nle]NKKC(2)KC(3)YPR-OH [Peptide 84]
IC50 [2]: > 3000 nM
Selectivity Kv1.1/Kv1.3 [2]: >100000
IC50 [3]: 0.028 nM
IC50 [4]: 480 nM
Selectivity Kv1.2/Kv1.3 [4]: 17000
IC50 [5]: > 3000 nM
Selectivity Kv1.6/Kv1.3 [5]: >100000

H-P[Nle]E[Nle]RC(1)[2-Amino-3-guanidinopropionyl]ASVEC(2)KQKC(3)LAAIGSIFGKC(1)[Nle]NKKC(2)KC(3)YPR-OH [Peptide 91]
IC50 [2]: > 3000 nM
Selectivity Kv1.1/Kv1.3 [2]: >46000
IC50 [3]: 0.064 nM
IC50 [4]: 380 nM
Selectivity Kv1.2/Kv1.3 [4]: 6000
IC50 [5]: > 3000 nM
Selectivity Kv1.6/Kv1.3 [5]: >46000

H-QMDMRC(1)SASVEC(2)KQKC(3)LKAIGRGFGKC(1)MNKKC(2)KC(3)YPR-OH [Peptide 2]
IC50 [2]: > 3000 nM
Selectivity Kv1.1/Kv1.3 [2]: >2000
IC50 [3]: 1.5 nM
IC50 [4]: 97 nM
Selectivity Kv1.2/Kv1.3 [4]: 65
IC50 [5]: 1810 nM
Selectivity Kv1.6/Kv1.3 [5]: 1204

H-RSCIDTIPKSRCTAFQCKHSMKYRLSFCRKTCGTC-OH [ShK, reference compound]
IC50 [4]: 11 nM
IC50 [5]: 0.19 nM

H-S[Nle]D[Nle]RC(1)SASVEC(2)AQKC(3)LAAIGSIFGKC(1)MNKKC(2)KC(3)YPR-NH2 [Peptide 82]
IC50 [3]: 0.16 nM

H-S[Nle]D[Nle]RC(1)SASVEC(2)KEKC(3)LQAIGSIFGKC(1)[Nle]NKKC(2)KC(3)YPR-NH2 [Peptide 87]
IC50 [1]: 0.69 nM

H-S[Nle]D[Nle]RC(1)SASVEC(2)KQKC(3)LAAIGC(4)IFGKC(1)[Nle]NKKC(2)KC(3)YPC(4)-NH2 [Peptide 90]
IC50 [1]: 0.73 nM

H-S[Nle]D[Nle]RC(1)SASVEC(2)KQKC(3)LKAIGSIFGKC(1)MNKKC(2)KC(3)YQ-NH2 [Peptide 76]
IC50 [1]: 1.6 nM

H-S[Nle]D[Nle]RC(1)SASVEC(2)KQKC(3)LKAIGSIFGKC(1)MNKKC(2)KC(3)[F(4-CH3)]PR-NH2 [Peptide 96]
IC50 [1]: 0.54 nM

H-S[Nle]D[Nle]RC(1)SASVEC(2)KQKC(3)LKAIGSIFGKC(1)MNKKC(2)KC(3)[F(4-F)]PR-NH2 [Peptide 94]
IC50 [1]: 0.34 nM

H-S[Nle]D[Nle]RC(1)SASVEC(2)KQKC(3)LKAIGSIFGKC(1)MNKKC(2)KC(3)[F(4-NO2)]PR-NH2 [Peptide 95]
IC50 [1]: 1.3 nM

H-S[Nle]D[Nle]RC(1)SASVEC(2)KQKC(3)LKAIGSIFGKC(1)[Nle]NKKC(2)KC(3)YPR-OH [Peptide 68]
IC50 [1]: 0.52 nM

H-S[Nle]D[Nle]RC(1)SASVEC(2)KQKC(3)LKAIGSIFG[homo-Lys]C(1)MNKKC(2)KC(3)YPR-NH2 [Peptide 71]
IC50 [1]: 2.7 nM

H-S[Nle]D[Nle]RC(1)SASVEC(2)KQKC(3)LVAIGSIFGKC(1)MNKKC(2)KC(3)YPR-NH2 [Peptide 80]
IC50 [1]: 0.39 nM

H-S[Nle]D[Nle]RC(1)SASVEC(2)K[2-Amino-5-carboxypentanoyl]KC(3)LKAIGSIFGKC(1)MNKKC(2)KC(3)YPR-NH2 [Peptide 75]
IC50 [1]: 0.52 nM

H-S[Nle]D[Nle]RC(1)SASVEC(2)VQKC(3)LKAIGSIFGKC(1)MNKKC(2)KC(3)YPR-NH2 [Peptide 74]
IC50 [1]: 0.47 nM

H-S[Nle]D[Nle]RC(1)SA[Abu]VEC(2)KQKC(3)LKAIGSIFGKC(1)MNKKC(2)KC(3)YPR-NH2 [Peptide 70]
IC50 [1]: 0.93 nM

From patent publication US20260325605A1, “INHIBITORS” (Zealand Pharma A/S, priority 2022, published 2026)
